# Results published in patent US20070112043A1, “Acylated and non-acylated imidazo[2,1-b]-1,3,4,-thiadiazole-2-sulfonamides, and uses thereof” (priority 2003, published 2007).
# Assay: physchem
# Details: water
# Experimental: Alternatively, the sodium salt can be prepared in situ by dissolving the free acid in phosphate buffered saline (PBS) that has been buffered to a pH of 7.4. The solubility and stability of these solutions can be improved by the use of an aqueous soluble co-solvent such as, but not limited to HPCD. This solubility can be further improved by the addition of surfactants such as PEG 400. In general, the free acid is suspended in 10 wt/vol % HPDC (10 g dissolved in 100 mL water) and treated with 0.5M PBS (pH 7.4) such that the volumes are in a ratio of 75:25.
row,SMILES,solubility
1,NS(=O)(=O)c1nn2cc(-c3ccc4c(c3)OCO4)nc2s1 [Compound 65],< 500 µg/mL
2,CC(=O)OCCOc1ccc(-c2cn3nc(S(N)(=O)=O)sc3n2)cc1 [Compound 69],< 500 µg/mL
3,NS(=O)(=O)c1nn2cc(-c3ccc(OCCO)cc3)nc2s1 [Compound 68],< 500 µg/mL
4,COC(=O)c1ccc(-c2cn3nc(S(N)(=O)=O)sc3n2)cc1 [Compound 76],< 500 µg/mL
5,CC1(C)CCC(C)(C)c2cc(-c3cn4nc(S(N)(=O)=O)sc4n3)ccc21 [Compound 88],< 500 µg/mL
6,NS(=O)(=O)c1nn2cc(-c3ccc(OC(F)(F)F)cc3)nc2s1 [Compound 67],< 500 µg/mL
7,NS(=O)(=O)c1nn2cc(-c3cc(C(F)(F)F)ccc3Cl)nc2s1 [Compound 85],< 500 µg/mL
8,COCCOCCOc1ccc(-c2cn3nc(S(N)(=O)=O)sc3n2)cc1 [Compound 71],< 500 µg/mL
9,NS(=O)(=O)c1nn2cc(-c3ccc(Cl)cc3)nc2s1 [Compound 56],< 500 µg/mL
10,CC(C)(C)c1cc(-c2cn3nc(S(N)(=O)=O)sc3n2)c2c(c1)C(C)(C)CC2 [Compound 82],< 500 µg/mL
11,NS(=O)(=O)c1nn2cc(-c3ccc(OCCOCc4ccccc4)cc3)nc2s1 [Compound 72],< 500 µg/mL
12,NS(=O)(=O)c1nn2cc(-c3cccc(Br)c3)nc2s1 [Compound 59],< 500 µg/mL
13,NS(=O)(=O)c1nn2cc(-c3ccc(Cl)c([N+](=O)[O-])c3)nc2s1 [Compound 75],< 500 µg/mL
14,NS(=O)(=O)c1nn2cc(-c3ccc(OCCC(F)(F)F)cc3)nc2s1 [Compound 70],< 500 µg/mL
15,COc1ccc(OC)c(-c2cn3nc(S(N)(=O)=O)sc3n2)c1 [Compound 63],< 500 µg/mL
16,NS(=O)(=O)c1nn2cc(-c3ccc(Br)cc3)nc2s1 [Compound 60],< 500 µg/mL
17,NS(=O)(=O)c1nn2cc(-c3cc(C(F)(F)F)cc(C(F)(F)F)c3)nc2s1 [Compound 86],< 500 µg/mL
18,CC(C)(C)c1cc(-c2cn3nc(S(N)(=O)=O)sc3n2)cc(C(C)(C)C)c1 [Compound 87],< 500 µg/mL
19,NS(=O)(=O)c1nn2cc(-c3ccc(F)c(F)c3)nc2s1 [Compound 55],< 500 µg/mL
20,NS(=O)(=O)c1nn2cc(-c3ccc(Cl)c(Cl)c3)nc2s1 [Compound 57],< 500 µg/mL
21,COc1cccc(-c2cn3nc(S(N)(=O)=O)sc3n2)c1 [Compound 61],< 500 µg/mL
22,NS(=O)(=O)c1nn2cc(-c3ccccc3F)nc2s1 [Compound 52],< 500 µg/mL
23,NS(=O)(=O)c1nn2cc(-c3ccc(C(F)(F)F)cc3)nc2s1 [Compound 84],< 500 µg/mL
24,NS(=O)(=O)c1nn2cc(-c3ccc(Cl)c(Cl)c3Cl)nc2s1 [Compound 58],< 500 µg/mL
25,Cc1ccc(-c2cn3nc(S(N)(=O)=O)sc3n2)c(C)c1 [Compound 80],< 500 µg/mL
26,CC(C)(C)c1ccc(-c2cn3nc(S(N)(=O)=O)sc3n2)cc1 [Compound 81],< 500 µg/mL
27,Cc1ccc(-c2cn3nc(S(N)(=O)=O)sc3n2)cc1 [Compound 79],< 500 µg/mL
28,NS(=O)(=O)c1nn2cc(-c3ccc(OCCCOCc4ccccc4)cc3)nc2s1 [Compound 73],< 500 µg/mL
29,NS(=O)(=O)c1nn2cc(-c3cccc(F)c3)nc2s1 [Compound 53],< 500 µg/mL

# Results, then the compound that gave them:
row,solubility,SMILES
1,< 500 µg/mL,NS(=O)(=O)c1nn2cc(-c3ccc(-c4ccccc4C(F)(F)F)cc3)nc2s1 [Compound 104]
2,< 500 µg/mL,COc1ccc(Oc2ccc(-c3cn4nc(S(N)(=O)=O)sc4n3)cc2)cc1 [Compound 119]
3,< 500 µg/mL,Cc1c(-c2cn3nc(S(N)(=O)=O)sc3n2)cnn1-c1ccccc1 [Compound 137]
4,< 500 µg/mL,NS(=O)(=O)c1nn2cc(-c3ccc(-c4ccsc4)cc3)nc2s1 [Compound 108]
5,< 500 µg/mL,NS(=O)(=O)c1nn2cc(-c3ccc(Oc4ccc(F)cc4)cc3)nc2s1 [Compound 111]
6,< 500 µg/mL,NS(=O)(=O)c1nn2cc(-c3ccc(Oc4ccc([N+](=O)[O-])cc4)cc3)nc2s1 [Compound 120]
7,< 500 µg/mL,COc1ccc(-c2ccc(-c3cn4nc(S(N)(=O)=O)sc4n3)cc2)cc1 [Compound 101]
8,< 500 µg/mL,CC(=O)N[C@H](C)c1ccc(-c2cn3nc(S(N)(=O)=O)sc3n2)cc1 [Compound 90]
9,< 500 µg/mL,NS(=O)(=O)c1nn2cc(-c3ccccn3)nc2s1 [Compound 123]
10,< 500 µg/mL,NS(=O)(=O)c1nn2cc(C(F)(F)F)nc2s1 [Compound 91]
11,< 500 µg/mL,NS(=O)(=O)c1nn2cc(-c3ccc(-c4ccccc4)cc3)nc2s1 [Compound 98]
12,< 500 µg/mL,NS(=O)(=O)c1nn2cc(-c3cnccn3)nc2s1 [Compound 126]
13,< 500 µg/mL,NS(=O)(=O)c1nn2cc(-c3cc4ccccc4o3)nc2s1 [Compound 129]
14,< 500 µg/mL,NS(=O)(=O)c1nn2cc(-c3cccs3)nc2s1 [Compound 130]
15,< 500 µg/mL,NS(=O)(=O)c1nn2cc(-c3ccc(-c4c(F)c(F)c(F)c(F)c4F)cc3)nc2s1 [Compound 99]
16,< 500 µg/mL,Cc1onc(-c2ccccc2)c1-c1cn2nc(S(N)(=O)=O)sc2n1 [Compound 136]
17,< 500 µg/mL,CN(C)c1cccc(Oc2ccc(-c3cn4nc(S(N)(=O)=O)sc4n3)cc2)c1 [Compound 117]
18,< 500 µg/mL,NS(=O)(=O)c1nn2cc(-c3ccc(-c4cc(C(F)(F)F)cc(C(F)(F)F)c4)cc3)nc2s1 [Compound 106]

row,solubility,SMILES
1,< 500 µg/mL,NS(=O)(=O)c1nn2cc(-c3ccc(Oc4ccc(F)c(F)c4)cc3)nc2s1 [Compound 112]
2,< 500 µg/mL,NS(=O)(=O)c1nn2cc(-c3cc4ccccc4oc3=O)nc2s1 [Compound 127]
3,< 500 µg/mL,NS(=O)(=O)c1nn2cc(-c3ccc(N4CCCCC4)cc3)nc2s1 [Compound 96]
4,< 500 µg/mL,Cc1ccc(-c2cn3nc(S(N)(=O)=O)sc3n2)cc1Cl [Compound 122]
5,< 500 µg/mL,CC(C)c1ccc(Oc2ccc(-c3cn4nc(S(N)(=O)=O)sc4n3)cc2)cc1 [Compound 118]
6,< 500 µg/mL,NS(=O)(=O)c1nn2cc(-c3ccc(Oc4cccc(Br)c4)cc3)nc2s1 [Compound 115]
7,< 500 µg/mL,NS(=O)(=O)c1nn2cc(-c3nccs3)nc2s1 [Compound 138]
8,< 500 µg/mL,NS(=O)(=O)c1nn2cc(-c3cc(-c4ccccc4)no3)nc2s1 [Compound 135]
9,< 500 µg/mL,COc1ccc(-c2cccc(-c3cn4nc(S(N)(=O)=O)sc4n3)c2)cc1 [Compound 109]
10,< 500 µg/mL,NS(=O)(=O)c1nn2cc(-c3ccc(Oc4ccc(Cl)c(Cl)c4)cc3)nc2s1 [Compound 113]
11,< 500 µg/mL,NS(=O)(=O)c1nn2cc(-c3ccc(-c4cccc(OC(F)(F)F)c4)cc3)nc2s1 [Compound 102]
12,< 500 µg/mL,NS(=O)(=O)c1nn2cc(-c3ccc4ccccc4c3)nc2s1 [Compound 94]
13,< 500 µg/mL,CNS(=O)(=O)c1nn2cc(-c3ccccc3)nc2s1 [Compound 140]
14,< 500 µg/mL,NS(=O)(=O)c1nn2cc(-c3ccc(-c4ccccc4)s3)nc2s1 [Compound 131]
15,< 500 µg/mL,NS(=O)(=O)c1nn2cc(-c3ccc(Oc4ccccc4)cc3)nc2s1 [Compound 110]
16,< 500 µg/mL,Br.NS(=O)(=O)c1nn2cc(-c3ccc([N+](=O)[O-])s3)nc2s1 [Compound 132]
17,< 500 µg/mL,NS(=O)(=O)c1nn2cc(-c3ccc(-c4cccs4)cc3)nc2s1 [Compound 107]
